Experimental findings from patent US20250296922A1, “POLYSUBSTITUTED PYRROLIDINE DERIVATIVE, PREPARATION METHOD THEREFOR AND USE THEREOF” (SHANGHAI WENNAI THERAPEUTICS CO LTD, priority 2023, published 2025) are described below.

Like-named read-outs stand apart in the source and are kept apart here.

The nature of series [1]: Pharmacokinetic experiment, rat test, gavage administration. The format is in vivo, SD rats. Particulars: 10 mg/kg; for AUC(0-t) / Cmax: Sprague-Dawley, rat, plasma, po; for AUC(0-t): read-out: Area under the curve AUC0-t; for Cmax: read-out: blood concentration Cmax. The text has this: 4.1.1 Abstract: SD rats were used as test animals, the LC/MS/MS method was applied to determine the drug concentration of the compounds of the Examples in plasma at different points after gavage administration to rats, to study the pharmacokinetic behavior of the compounds of the present invention in rats, and to evaluate their pharmacokinetic characteristics.
4.1.2.2 Test animals: 6 male SD rats and 6 female rats, all provided by Shanghai Jihui Laboratory Animal Breeding Co. The animals were fasted for at least 12 hours before administration and food supply was resumed 4 hours after administration.
4.1.2.3 Drug Preparation: Weighed an amount of the test compound separately and prepared a completely clear solution with a final concentration of 1 mg/mL using a mixed solvent of DMSO: Solutol: Saline (5%: 5%: 90%).
4.1.2.4 Administration: a dose of 10 mg/kg, a volume of 10 mL/kg.
4.1.3 Test operation: 0.1 mL blood samples were collected from the orbit before and 15 min, 30 min, 1 h, 2h, 4 h, 6h, 8 h, 10h, 24 h after the administration of the drug to male rats and placed in EDTA-K2 anticoagulant tubes. 0.03 mL blood samples were collected from the orbit before and 0.5h, 1 h, 2h, 3 h, 6h, 10 h and 24 h after administration to female rats. After blood samples were collected, they were placed in labelled centrifuge tubes in ice-water bath and rapidly centrifuged to separate the plasma at 4000 rpm for 10 min at 4° C. The plasma was stored at −70° C. or below for measurement.
The plasma samples were thawed at room temperature and 50 μL was added to 400 μL of acetonitrile containing the internal standard (40 ng/mL, terfenadine), vortexed for 1 min and centrifuged for 10 min at 4° C. and 15,400 g. 1 μL of the supernatant was injected for analysis.

The nature of series [2]: Pharmacokinetic experiment, dog test, intravenous injection. The format is in vivo. Particulars: male Beagle, 0.5 mg/kg. The text has this:
4.2.1 Abstract: Beagle was used as the test animal, the LC/MS/MS method was applied to determine the drug concentration in the plasma of Beagle at different points after intravenous injection of the compounds of the examples, to study the pharmacokinetic behavior of the compounds of the present invention in the Beagle, and to evaluate their pharmacokinetic characteristics.
4.2.2.2 Test animals: 4 male Beagles, provided by Jiangsu LingfuZhaoshengyuan Biotechnology Co. Fasting started at 5 p.m. on the day before drug administration, and the duration of fasting was no less than 12 hours, and food was resumed 4 hours after drug administration.
4.2.2.3 Drug Preparation: Weighed an amount of the test compound and prepared a completely clear solution with a final concentration of 1 mg/mL using a mixed solvent of DMSO: Solutol: Saline (5%: 5%: 90%).
4.2.2.4 Administration: a dose of 0.5 mg/kg, a volume of 0.5 mL/kg.
4.2.3 Test operation: 0.4 mL of blood samples were collected from the forelimb vein of male Beagles before and 5 min, 15 min, 30 min, 1 h, 2h, 4 h, 6h, 8 h, 10 h and 24 h after intravenous administration and placed in EDTA-K2 anticoagulant tubes. After blood samples were collected, they were placed in labelled centrifuge tubes in ice water bath and rapidly centrifuged to separate the plasma. Centrifugation conditions: 4000 rpm, 10 min, 4° C., and the plasma was placed at −70° C. or below for measurement.
Plasma samples were thawed at room temperature and 50 μL was added to 400 μL of acetonitrile containing the internal standard (40 ng/mL, terfenadine), vortexed for 1 min and then centrifuged at 15400 g for 10 min at 4° C. The supernatant was diluted 10-fold with 80% acetonitrile in water and 1 μL sample was injected for analysis.

The nature of series [3]: Proportion of free drug in human plasma, equilibrium dialysis. The format is in vitro ADME. As to conditions: 2 μM compound, dialysis 4 h, 37° C. On the procedure:
On the day of the experiment, human plasma samples (purchased from Biomex) were thawed under running tap water and centrifuged at 3220 g for 5 min to remove blood clots. The pH of the resulting plasma was measured and adjusted to pH 7.4+0.1 by using 1% phosphoric acid or 1 N sodium hydroxide as required.
Pretreating the dialysis membranes according to the manufacturer's instructions: The dialysis membrane strips were soaked in ultrapure water at room temperature for approximately 1 hour. Afterwards, each membrane strip containing 2 layers of membrane was separated and soaked in ethanol: water (20:80 v: v) for approximately 20 minutes, then it was ready for use or stored at 2-8° C. (stored for up to 1 month). The membranes were rinsed and soaked in ultrapure water for 20 min before experiments.
A 10 mM DMSO solution of test compound or control warfarin was taken and diluted to 400 μM with DMSO, then 3 μl was taken and added to 597 μl of blank plasma matrix solution to obtain 2 μM of compound solution respectively. 50 μl of test compound solution or control solution was transferred to a sample collection plate with 3 replicate wells per sample. […]
Unbonded %, bonded % and recovered % were calculated using the following formulae. […]

By clearance is commonly meant a measure of how efficiently the substance is removed, as volume per time. As usually defined, the half-life is the time in which the quantity being followed falls by half.

On to “4-((2R,3S,4S,5R)-3-(3,4-difluoro-2-(methoxy-d3)phenyl)-4,5-dimethyl-5-(trifluoromethyl) pyrrolidine-2-carboxamido)pyridinamide [Compound 11]”, for which, in series [1] (female SD rats), the “Area under the curve AUC0-t” value was determined as 23809 ng·h/mL and the “blood concentration Cmax” value is recorded as 1850 ng/mL. For the same compound, in series [1] (male SD rats), the “Area under the curve AUC0-t” value amounted to 4656 ng·h/mL and the “blood concentration Cmax” value came out at 1006 ng/mL. Besides, in series [2], the “Area under the curve AUC0-t” value came to 15644 ng·h/mL, the “Clearance CL” value was found to be 0.134 mL/min/kg and the “half-life t½” value is 57.4 h. Besides, the “free drug proportion of in human plasma” value in series [3] is 1.6%.
As to `COc1c([C@H]2[C@H](C(=O)Nc3ccnc(C(N)=O)c3)O[C@@](C)(C(F)(F)F)[C@H]2C)ccc(F)c1F` [VX-548, reference compound], the AUC(0-t) turned out to be 10900 ng·h/mL in series [1] (female SD rats); 1210 ng·h/mL in series [1] (male SD rats); 11100 ng·h/mL in series [2] (dog, plasma, read-out: Area under the curve AUC0-t). Besides, the Cmax in series [1] (female SD rats) is 719 ng/mL; in series [1] (male SD rats), 385 ng/mL. Besides, the clearance in series [2] (dog, plasma, read-out: Clearance CL (converted)) is 0.438 mL/min/kg. Further, the half-life in series [2] (dog, plasma, read-out: half-life t½ (converted)) is 19.7 h. In addition, the “free drug proportion of in human plasma” value in series [3] is 1.0%.
